Results taken from patent US12351580B2, “NLRP3 modulators” (Innate Tumor Immunity, Inc., priority 2017, dated 2025).

Target: T1, hNLRP3 (Homo sapiens, UniProt Q96P20)
T1 construct: THP-1 cells were purchased from the American Type Culture Collection; host or cells: THP-1 cells, PMA-differentiated
Test: Measurement of IL-1β production in PMA-differentiated THP-1 cells (hNLRP3 agonist; ELISA, alternative and hTRF procedures)
Format: cell-based
In short: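 Supernatant IL-1β was quantified by ELISA in two procedures and by hTRF (kit antibodies at 1:40) in a third. THP-1 cells were first differentiated with PMA ([…] for 24 h; 20 μg/ml overnight; 50 ng/ml overnight), then incubated in 2% FBS RPMI with compounds for 4 h, 2 h and 2 h, respectively, at 1% DMSO or a 10 μM top concentration.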

T1 sequence (Q96P20 whole entry): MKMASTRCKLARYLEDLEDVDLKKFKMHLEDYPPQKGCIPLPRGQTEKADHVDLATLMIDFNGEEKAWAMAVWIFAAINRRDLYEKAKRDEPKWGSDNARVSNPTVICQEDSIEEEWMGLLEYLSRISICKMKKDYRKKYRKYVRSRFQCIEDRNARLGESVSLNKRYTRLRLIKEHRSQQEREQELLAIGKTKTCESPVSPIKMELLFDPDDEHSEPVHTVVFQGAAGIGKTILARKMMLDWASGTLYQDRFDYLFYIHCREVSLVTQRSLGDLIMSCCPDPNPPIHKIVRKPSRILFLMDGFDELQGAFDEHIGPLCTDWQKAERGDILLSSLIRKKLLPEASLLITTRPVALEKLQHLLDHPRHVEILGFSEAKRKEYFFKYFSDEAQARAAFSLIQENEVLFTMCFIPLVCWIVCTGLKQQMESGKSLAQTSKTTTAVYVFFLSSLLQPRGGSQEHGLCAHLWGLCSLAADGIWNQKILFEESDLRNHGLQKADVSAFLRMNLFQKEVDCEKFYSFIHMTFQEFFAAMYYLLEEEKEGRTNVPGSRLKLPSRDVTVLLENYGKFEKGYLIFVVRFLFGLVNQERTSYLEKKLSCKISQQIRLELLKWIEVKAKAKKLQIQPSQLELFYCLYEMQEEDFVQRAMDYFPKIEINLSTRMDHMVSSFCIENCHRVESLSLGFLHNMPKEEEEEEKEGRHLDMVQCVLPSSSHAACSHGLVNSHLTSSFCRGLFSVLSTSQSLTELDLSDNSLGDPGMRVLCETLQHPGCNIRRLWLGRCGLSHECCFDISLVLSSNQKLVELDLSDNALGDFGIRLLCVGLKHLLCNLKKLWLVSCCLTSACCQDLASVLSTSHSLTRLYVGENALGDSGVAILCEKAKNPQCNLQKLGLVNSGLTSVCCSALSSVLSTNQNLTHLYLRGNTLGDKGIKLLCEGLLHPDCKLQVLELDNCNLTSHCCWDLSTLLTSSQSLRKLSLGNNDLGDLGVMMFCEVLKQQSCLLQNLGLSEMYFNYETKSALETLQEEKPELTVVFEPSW

Compound | EC50
CCC(=O)N(CC)Cc1nc2c(N)nc3cc(-n4cccn4)ccc3c2n1CCO [Compound 478, N-{[4-amino-1-(2-hydroxyethyl)-7-(1H-pyrazol-1-yl)-1H-imidazo[4,5-c]quinolin-2-yl]methyl}-N-ethylpropanamide] | 3700 nM
CCC(=O)N(CC)Cc1nc2c(N)nc3cc(-c4cccs4)ccc3c2n1CC [Compound 480, N-{[4-amino-1-ethyl-7-(thiophen-2-yl)-1H-imidazo[4,5-c]quinolin-2-yl]methyl}-N-ethylpropanamide] | 1900 nM

Now those with a lower EC50, led by results:

EC50 | Compound
670 nM | CCN(Cc1nc2c(N)nc3cc(-n4cccn4)ccc3c2n1CC)C(C)=O [Compound 479, N-{[4-amino-1-ethyl-7-(1H-pyrazol-1-yl)-1H-imidazo[4,5-c]quinolin-2-yl]methyl}-N-ethylacetamide]
630 nM | CCC(=O)N(CC)Cc1nc2c(N)nc3cc(-n4cccn4)ccc3c2n1CC [Compound 481, N-{[4-amino-1-ethyl-7-(1H-pyrazol-1-yl)-1H-imidazo[4,5-c]quinolin-2-yl]methyl}-N-ethylpropanamide]
430 nM | CCN(Cc1nc2c(N)nc3cc(-c4cccs4)ccc3c2n1CCO)C(C)=O [Compound 482, N-{[4-amino-1-(2-hydroxyethyl)-7-(thiophen-2-yl)-1H-imidazo[4,5-c]quinolin-2-yl]methyl}-N-ethylacetamide]
